Measurements from PubChem BioAssay AID179 (DTP/NCI, 2004).
Calls of active or inactive are those of the source.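 How the source made its calls: active means compounds giving half or more protection of infected cells from virus-caused growth loss, again on retest; inactive means the rest.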 Where a SMILES comes first, the peptide text is derived from it. The star is where a group is joined. Boc = CC(C)(C)OC(=O)*

System: CEM cells HIV-1 protection, formazan growth assay
Assay: NCI AIDS Antiviral Assay
Conditions: for IC50: measured here: growth of uninfected CEM cells
Summary of the method: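 Steps: treat uninfected and HIV-1-infected human CEM cells at five drug levels; quantify growth by soluble formazan; retest any compound reaching 50% protection; classify actives from the retest.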

| SMILES | EC50 [µM] | IC50 [µM] | outcome |
| --- | --- | --- | --- |
| CCOc1ccc(N2CC(=O)N3CCCCN3C(=O)C2)cc1 | > 200 | > 200 |  |
| O=[N+]([O-])c1cccnc1NCC1(CO)CCCC1 | > 200 | 46.8 |  |
| O=C1N2CCCSC2=NC1(c1ccccc1)c1ccccc1 |  |  | inactive |
| Cc1ncc([N+](=O)[O-])n1CCN(C)C(=O)CCCn1ccnc1[N+](=O)[O-] | > 200 | > 200 |  |
| c1ccc2nc3cc4c(cc3nc2c1)NC12CCCCC1CC1=C(CCCC1)N42 (configuration not stated) | > 200 | 3.24 |  |
| O=C(N/C(=C\c1cccc([N+](=O)[O-])c1)c1nc2c3c(ccc2[nH]1)C(=O)c1ccccc1C3=O)c1ccccc1 |  |  | inactive |
| COC(=O)C(NC(=O)C12CCC(C)(C(=O)O1)C2(C)C)c1cc(C(C)(C)C)c(O)c(C(C)(C)C)c1 (configuration not stated) | > 20 | > 20 |  |
| Cc1nc(Nc2nc3ccccc3[nH]2)nc(Cl)c1CCCl |  |  | inactive |
| COc1ccc(C(=O)Nc2ccc(S(=O)(=O)c3ccc(NC(=O)c4ccccc4SSc4ccccc4C(=O)Nc4ccc(S(=O)(=O)c5ccc(NC(=O)c6ccc(OC)cc6)cc5)cc4)cc3)cc2)cc1 | 16.6 | 151 |  |
| CCCCCCCCCCCCS(=O)(=O)O |  |  | inactive |
| O=S(=O)(O)c1cc(N=Cc2cc(S(=O)(=O)O)c3cccnc3c2O)ccc1/C=C\c1ccc(N=Cc2cc(S(=O)(=O)O)c3cccnc3c2O)cc1S(=O)(=O)O | > 38.9 | > 38.9 |  |
| CC[S+](C)c1ccc(-c2c3nc(c(-c4ccc([S+](C)CC)cc4)c4ccc([nH]4)c(-c4ccc([S+](C)CC)cc4)c4nc(c(-c5ccc([S+](C)CC)cc5)c5ccc2[nH]5)C=C4)C=C3)cc1 (configuration not stated) | 4.79 | 13.2 |  |
| CC(C)CCCC(C)[C@H]1CCC2[C@@H]3CCC4Nc5nocc5C[C@]4(C)C3CC[C@@]21C (some centres not stated) |  |  | inactive |
| CC(=O)/C(=C/N1CC(=O)NC1=S)C(=O)Nc1ccccc1C | > 200 | > 200 |  |
| CCN(CC)c1c(-c2c(OC(C)C)c(=O)c2=O)c(=O)n2ccsc2c1OC(C)=O | > 200 | 141 |  |
| Cc1ccc2nccc(/C=C/c3ccc(N(C)C)cc3)c2c1 | > 13.2 | 2.45 |  |
| Oc1c(C(O)N2CCOCC2)cc(C(O)N2CCOCC2)c(O)c1O (configuration not stated) (tested in a mixture with another compound) | > 200 | 1.91 |  |
| C[N+]1(C)CC2C3C=CC(C3)C2C1 (configuration not stated) | > 309 | > 309 |  |
| COc1ccc(C2OC(=O)c3c2ccc2ccccc32)c(C)c1 (configuration not stated) | > 44.7 | 27.5 |  |
| O=C(CCN(CCO)CCO)Nc1ccc2c(c1)C(=O)c1ccc(NC(=O)CCN(CCO)CCO)cc1C2=O | > 200 | 1.66 |  |

| SMILES | EC50 [µM] | IC50 [µM] | outcome |
| --- | --- | --- | --- |
| O=C1/C(=C/c2ccc(Cl)cc2)Sc2scc(-c3cccc([N+](=O)[O-])c3)[n+]21 | > 200 | 1.38 |  |
| COC(=O)C1=CC(=O)OC1(OO)c1ccc(Br)cc1 (configuration not stated) | > 200 | 38.9 |  |
| Cc1cc(C)nc(NS(=O)(=O)c2ccc(NC(=O)c3cccc4cc5ccccc5nc34)cc2)n1 | > 91.2 | 3.8 |  |
| CC1=NNC(=O)C1C1CC(c2c[nH]c3ccccc23)=NN(C(N)=O)C1=O (configuration not stated) | > 200 | > 100 |  |
| Cc1ccc2c(c1-c1c(C)ccc3c1C(=O)c1ccccc1C3=O)C(=O)c1ccccc1C2=O | > 200 | 7.76 |  |
| O=C(O)CCCCCCCC(=O)O | > 1320 | > 1320 |  |
| CC1CN=C(N(C(=O)Nc2ccccc2)c2ccc(Cl)c(Cl)c2)S1 (configuration not stated) | > 200 | 138 |  |
| COC(=O)C(Cc1c[nH]c2ccccc12)NC(=O)C(Cc1c[nH]c2ccccc12)NC(=O)C(Cc1c[nH]c2ccccc12)NC(=O)C(Cc1c[nH]c2ccccc12)NC(=O)OC(C)(C)C (configuration not stated) (Boc-WWWW-OMe; configuration not given here) | > 100 | 13.8 |  |
| CC1=NC(C)(COC(=O)C2(C)NC(C)(CO)CO2)COC1=O (configuration not stated) | > 200 | > 200 |  |
| CNc1ccccc1S(=O)(=O)c1ccccc1Br | > 200 | 18.2 |  |
| OC12c3ccccc3C1CCCCC2N1CCCC1 (configuration not stated) | > 200 | > 200 |  |
| C/C=C/CC(S(=O)(=O)c1ccccc1)S(=O)(=O)c1ccccc1 | > 100 | > 100 |  |
| N/C(=N/N=C\c1nccc2ccccc12)NO |  |  | inactive |
| COC(=O)C1C(OC(=O)c2ccccc2)CC2CCC1N2C(N)=O (configuration not stated) | > 200 | > 200 |  |
| N#Cc1c(N)c2c(c(-c3ccccc3)c1-c1ccccc1)C(=O)N(NC(=S)Nc1ccccc1)C2=O | > 58.9 | 47.9 |  |
| c1scc2c1COCCOCCOCCOCCOC2 | > 832 | > 832 |  |
| CC(C)(C)[Si](C)(C)OC1C(=O)C(CO)OC1n1ccc(=O)[nH]c1=O (configuration not stated) | > 200 | > 200 |  |
| O=C(NNC(=O)c1ccco1)c1ccco1 | > 200 | > 200 |  |
| O=C(O)c1cc2c(cc1CC(Cc1ccc3c(c1)CCCC3)C(=O)O)CCCC2 (configuration not stated) | > 200 | 51.3 |  |
| CC1=C/C(=N\OCC(=O)O)CC(c2ccc(C(C)C)cc2)C1 (configuration not stated) | > 200 | 97.7 |  |

| SMILES | EC50 [µM] | IC50 [µM] | outcome |
| --- | --- | --- | --- |
| CC(Nc1cc(=O)n(C)c(=O)[nH]1)c1ccccc1 (configuration not stated) | 55 | > 200 |  |
| CN(C)Cc1cc(N=Nc2ccccc2)cc(CN(C)C)c1O | > 200 | 102 |  |
| CC(=O)OCC1CC(n2cc(C)c(=O)[nH]c2=O)=NO1 (configuration not stated) | > 200 | > 200 |  |
| COc1cc(C(C[N+](=O)[O-])SC(C)=O)ccc1OCc1ccccc1 (configuration not stated) | > 200 | 1.95 |  |
| Nc1ccn(CC(=O)NCCCO)c(=O)n1 | > 200 | > 200 |  |
| Cc1cc(C)n(C2OC(CO)C(O)C(O)C2O)c(=S)c1C#N (configuration not stated) | > 200 | > 200 |  |
| NC(=N\N=C/c1ccc(Cl)c(Cl)c1)/C(N)=N\N=C/c1ccc(Cl)c(Cl)c1 |  |  | inactive |
| CCC1=CC(OCc2ccccc2)C(CCN(Cc2ccccc2)C(=O)OCc2ccccc2)C1 (configuration not stated) | > 200 | 9.55 |  |
| COc1cc(C(=O)Oc2c(C#N)sc3c2c(=O)n(-c2ccccc2)c(=S)n3-c2ccccc2)cc(OC)c1OC | > 200 | 0.617 |  |
| CCS(=O)c1c2cc(OC)ccc2nc2ccc(OC)cc12 (configuration not stated) | > 200 | 1.38 |  |
| COc1cc(OC)c(OC)cc1/C=N/N=C(\N)NO | > 200 | > 200 |  |
| CC1=C(C(=O)Nc2ccccc2)C(c2cccc3ccccc23)C(C(=O)Nc2ccccc2)=C(C)N1 |  |  | inactive |
| CC(NC(=O)C(NC(=O)C(NC(=O)C(F)(F)F)C(C)C)C(C)C)C(=O)Oc1c(Cl)c(Cl)c(Cl)c(Cl)c1Cl (configuration not stated) | > 200 | 141 |  |
| Cc1cc(Cl)c2c(c1)C(=N/O)/C(=C\c1ccco1)O2 | > 200 | 10.2 |  |
| C1=CCCC=CCC1.C[PH+](C)C.C[PH+](C)C.C[PH+](C)C.[Cl-].[Ir] |  |  | inactive |
| CC1c2cc(c3c(c2O)CN([C@@H](C)C2CCCCC2)CO3)C(C)c2cc(c3c(c2O)CN([C@@H](C)C2CCCCC2)CO3)C(C)c2cc(c3c(c2O)CN([C@@H](C)C2CCCCC2)CO3)C(C)c2cc1c1c(c2O)CN([C@@H](C)C2CCCCC2)CO1 (some centres not stated) | > 100 | 1.74 |  |
| CC(=O)Oc1ccc2c(C)cc(=O)oc2c1 | > 200 | 170 |  |
| CSc1c(C(C)=O)c(O)n(-c2ccc(C)cc2)c(=O)c1C#N | > 200 | 63.1 |  |
